How the values were obtained:
[1] = test system: velvetleaf; test: Soil treatment test for upland field; type: in vivo, Abutilon theophrasti; set-up: key: 0 = normal development, 5 = all killed; conditions: 500 g/ha, 3 weeks, glass house 25° C.
Method: (§1) The herbicidal effects are evaluated according to the following 6 ranks as compared with non-treated district. (0: normal development, 1: Less damaged, 2: Slightly damaged, 3: Moderately damaged, 4: Severely damaged, 5: All killed). Incidentally, “-” in the column means not investigated.
(§2) Wagner pots, each having an area of 1/5000 are, were packed with Ube soil (alluvial soil), and then each seed of corn, soybean, cotton, wheat, solgum, sugar beat, Large crabgrass, barnyard grass, green foxtail, blackgrass, annual bluegrass, common lambsquarters, livid amaranth, velvetleaf, morning glory, common Cocklebur (Xanthium strumarium) and sicklepod (Cassia obtusifolia) were planted and covered with soil.
(§3) Each wettable powder of the desired compounds (I) shown in Tables 1 to 21, 24, 25, 28 and 29 prepared in accordance with Example 2 was diluted with water containing a surfactant (0.05%) and uniformly sprayed on the surface of each soil so that an effective concentration of the compound (I) in each herbicide became 500 g/ha.
(§4) These plants were controlled in a glass house at an average temperature of 25° C. for 3 weeks, and then herbicidal effects thereof were investigated.
(§5) The herbicidal effects were evaluated according to the evaluation method described in the above (1).

[2] = test system: sugar beat; test: Foliar spread test for upland field; type: in vivo; set-up: key: 0 = normal development, 5 = all killed (6 ranks vs. untreated); conditions: foliar spray, 500 ppm, 3 weeks, glass house 25° C.
Method: as §1
(§6) Wagner pots, each having an area of 1/5000 are, were packed with volcanic ash soil and then each seed of corn, soybean, cotton, wheat, solgum, sugar beat, Large crabgrass, barnyardgrjass, green foxtail, blackgrass, annual bluegrass, common lambsquarters, livid amaranth, velvetleaf, morning glory, Xanthium pensylvanicum and Cassia obtusifolia was planted, covered with soil and grown in a glass house at an average temperature of 25° C. for about 2 weeks.
(§7) Each wettable powder of the desired compounds (I) shown in Tables 1 to 21, 24, 25, 28 and 29 prepared in accordance with Example 2 was diluted to 500 ppm with water containing a surfactant (0.5%) and then uniformly sprayed on the above respective plants.
(§8) After these plants were controlled in a glass house at an average temperature of 25° C. for 3 weeks, the herbicidal effects thereof were investigated.
as §5

[3] = test system: wheat; test: Foliar spread test for upland field; type: in vivo; set-up: key: 0 = normal development, 5 = all killed (6 ranks vs. untreated); conditions: foliar spray, 500 ppm, 3 weeks, glass house 25° C.
Method: as §1, §6, §7, §8, §5

[4] = test system: solgum; test: Foliar spread test for upland field; type: in vivo; set-up: key: 0 = normal development, 5 = all killed (6 ranks vs. untreated); conditions: foliar spray, 500 ppm, 3 weeks, glass house 25° C.
Method: as §1, §6, §7, §8, §5

[5] = test system: soybean; test: Foliar spread test for upland field; type: in vivo; set-up: key: 0 = normal development, 5 = all killed (6 ranks vs. untreated); conditions: foliar spray, 500 ppm, 3 weeks, glass house 25° C.
Method: as §1, §6, §7, §8, §5

[6] = test system: corn; test: Foliar spread test for upland field; type: in vivo; set-up: key: 0 = normal development, 5 = all killed (6 ranks vs. untreated); conditions: foliar spray, 500 ppm, 3 weeks, glass house 25° C.
Method: as §1, §6, §7, §8, §5

[7] = test system: cotton; test: Foliar spread test for upland field; type: in vivo; set-up: key: 0 = normal development, 5 = all killed (6 ranks vs. untreated); conditions: foliar spray, 500 ppm, 3 weeks, glass house 25° C.
Method: as §1, §6, §7, §8, §5

[8] = test system: annual bluegrass; test: Soil treatment test for upland field; type: in vivo, Poa annua; set-up: key: 0 = normal development, 5 = all killed; conditions: 500 g/ha, 3 weeks, glass house 25° C.
Method: as §1, §2, §3, §4, §5

[9] = test system: Large crabgrass; test: Soil treatment test for upland field; type: in vivo, Digitaria adscendens; set-up: key: 0 = normal development, 5 = all killed; conditions: 500 g/ha, 3 weeks, glass house 25° C.
Method: as §1, §2, §3, §4, §5

[10] = test system: livid amaranth; test: Foliar spread test for upland field; type: in vivo, Amaranthus lividus; set-up: key: 0 = normal development, 5 = all killed (6 ranks vs. untreated); conditions: foliar spray, 500 ppm, 3 weeks, glass house 25° C.
Method: as §1, §6, §7, §8, §5

[11] = test system: green foxtail; test: Soil treatment test for upland field; type: in vivo, Setaria viridis; set-up: key: 0 = normal development, 5 = all killed; conditions: 500 g/ha, 3 weeks, glass house 25° C.
Method: as §1, §2, §3, §4, §5

[12] = test system: annual bluegrass; test: Foliar spread test for upland field; type: in vivo, Poa annua; set-up: key: 0 = normal development, 5 = all killed (6 ranks vs. untreated); conditions: foliar spray, 500 ppm, 3 weeks, glass house 25° C.
Method: as §1, §6, §7, §8, §5

[13] = test system: common lambsquarters; test: Soil treatment test for upland field; type: in vivo, Chenopodium album; set-up: key: 0 = normal development, 5 = all killed; conditions: 500 g/ha, 3 weeks, glass house 25° C.
Method: as §1, §2, §3, §4, §5

[14] = test system: blackgrass; test: Soil treatment test for upland field; type: in vivo, Alopecurus aegualis; set-up: key: 0 = normal development, 5 = all killed; conditions: 500 g/ha, 3 weeks, glass house 25° C.
Method: as §1, §2, §3, §4, §5

[15] = test system: common lambsquarters; test: Foliar spread test for upland field; type: in vivo, Chenopodium album; set-up: key: 0 = normal development, 5 = all killed (6 ranks vs. untreated); conditions: foliar spray, 500 ppm, 3 weeks, glass house 25° C.
Method: as §1, §6, §7, §8, §5

[16] = test system: green foxtail; test: Foliar spread test for upland field; type: in vivo, Setaria viridis; set-up: key: 0 = normal development, 5 = all killed (6 ranks vs. untreated); conditions: foliar spray, 500 ppm, 3 weeks, glass house 25° C.
Method: as §1, §6, §7, §8, §5

[17] = test system: barnyard grass; test: Soil treatment test for upland field; type: in vivo, Eschinochloa crusgalli; set-up: key: 0 = normal development, 5 = all killed; conditions: 500 g/ha, 3 weeks, glass house 25° C.
Method: as §1, §2, §3, §4, §5

[18] = test system: morning glory; test: Foliar spread test for upland field; type: in vivo, Ipomoea spps.; set-up: key: 0 = normal development, 5 = all killed (6 ranks vs. untreated); conditions: foliar spray, 500 ppm, 3 weeks, glass house 25° C.
Method: as §1, §6, §7, §8, §5

[19] = test system: velvetleaf; test: Foliar spread test for upland field; type: in vivo, Abutilon theophrasti; set-up: key: 0 = normal development, 5 = all killed (6 ranks vs. untreated); conditions: foliar spray, 500 ppm, 3 weeks, glass house 25° C.
Method: as §1, §6, §7, §8, §5

[20] = test system: blackgrass; test: Foliar spread test for upland field; type: in vivo, Alopecurus aegualis; set-up: key: 0 = normal development, 5 = all killed (6 ranks vs. untreated); conditions: foliar spray, 500 ppm, 3 weeks, glass house 25° C.
Method: as §1, §6, §7, §8, §5

[21] = test system: Large crabgrass; test: Foliar spread test for upland field; type: in vivo, Digitaria adscendens; set-up: key: 0 = normal development, 5 = all killed (6 ranks vs. untreated); conditions: foliar spray, 500 ppm, 3 weeks, glass house 25° C.
Method: as §1, §6, §7, §8, §5

[22] = test system: morning glory; test: Soil treatment test for upland field; type: in vivo, Ipomoea spps.; set-up: key: 0 = normal development, 5 = all killed; conditions: 500 g/ha, 3 weeks, glass house 25° C.
Method: as §1, §2, §3, §4, §5

[23] = test system: barnyardgrjass; test: Foliar spread test for upland field; type: in vivo, Eschinochloa crusgalli; set-up: key: 0 = normal development, 5 = all killed (6 ranks vs. untreated); conditions: foliar spray, 500 ppm, 3 weeks, glass house 25° C.
Method: as §1, §6, §7, §8, §5

[24] = test system: livid amaranth; test: Soil treatment test for upland field; type: in vivo, Amaranthus lividus; set-up: key: 0 = normal development, 5 = all killed; conditions: 500 g/ha, 3 weeks, glass house 25° C.
Method: as §1, §2, §3, §4, §5

[25] = test system: sugar beat; test: Soil treatment test for upland field; type: in vivo; set-up: key: 0 = normal development, 5 = all killed; conditions: 500 g/ha, 3 weeks, glass house 25° C.
Method: as §1, §2, §3, §4, §5

[26] = test system: wheat; test: Soil treatment test for upland field; type: in vivo; set-up: key: 0 = normal development, 5 = all killed; conditions: 500 g/ha, 3 weeks, glass house 25° C.
Method: as §1, §2, §3, §4, §5

[27] = test system: solgum; test: Soil treatment test for upland field; type: in vivo; set-up: key: 0 = normal development, 5 = all killed; conditions: 500 g/ha, 3 weeks, glass house 25° C.
Method: as §1, §2, §3, §4, §5

[28] = test system: corn; test: Soil treatment test for upland field; type: in vivo; set-up: key: 0 = normal development, 5 = all killed; conditions: 500 g/ha, 3 weeks, glass house 25° C.
Method: as §1, §2, §3, §4, §5

| Compound | Effects Sugar beat [2] | Effects Wheat [3] | Effects Solgum [4] | Effects Soybean [5] | Effects Corn [6] | Effects Sotton [7] | Effects Annual bluegrass [8] | Effects Large crabgrass [9] | Effects Livid amaranth [10] | Effects Green foxtail [11] | Effects Annual bluegrass [12] | Effects Common lambsquarters [13] | Effects Blackgrass [14] | Effects Common lambsquarters [15] | Effects Green foxtail [16] | Effects Barnyardgrass [17] | Effects Morning glory [18] | Effects Velvetleaf [19] | Effects Blackgrass [20] | Effects Large crabgrass [21] | further results |
| --- | --- | --- | --- | --- | --- | --- | --- | --- | --- | --- | --- | --- | --- | --- | --- | --- | --- | --- | --- | --- | --- |
| CC(=Cc1cccc(C(F)(F)F)c1)c1nc2cc(Cl)ccc2o1 [I-c-53] | 5 | 1 | 1 | 4 | 3 | 3 | 5 | 5 | 5 | 5 | 4 | 5 | 5 | 5 | 5 | 5 | 5 | 3 | 4 | 4 | Effects Velvetleaf [1]: 1; Effects Morning glory [22]: 2; Effects Barnyardgrass [23]: 1; Effects Livid amaranth [24]: 5; Effects Sugar beat [25]: 5; Effects Wheat [26]: 1; Effects Solgum [27]: 0; Effects Corn [28]: 1 |
| CCCC(=Cc1cccc(C(F)(F)F)c1)c1nc2cc(F)ccc2o1 [I-c-44] | 3 | 2 | 2 | 5 | 2 | 3 | 5 | 5 | 5 | 5 | 4 | 5 | 5 | 5 | 4 | 5 | 5 | 2 | 3 | 4 | Effects Velvetleaf [1]: 3; Effects Morning glory [22]: 2; Effects Barnyardgrass [23]: 2; Effects Livid amaranth [24]: 5; Effects Sugar beat [25]: 5; Effects Wheat [26]: 2; Effects Solgum [27]: 3; Effects Corn [28]: 2 |
| CCCC(=Cc1cccc(C(F)(F)F)c1)c1nc2cc([N+](=O)[O-])ccc2o1 [I-c-74] | 4 | 2 | 2 | 5 | 2 | 5 | 5 | 5 | 5 | 5 | 4 | 5 | 4 | 5 | 5 | 5 | 5 | 4 | 2 | 4 | Effects Velvetleaf [1]: 5; Effects Morning glory [22]: 5; Effects Barnyardgrass [23]: 2; Effects Livid amaranth [24]: 5; Effects Sugar beat [25]: 5; Effects Wheat [26]: 1; Effects Solgum [27]: 2; Effects Corn [28]: 2 |
| CCCC(=Cc1cccc(C(F)(F)F)c1)c1nc2cc(F)c(F)cc2o1 [I-c-113] | 5 | 2 | 3 | 5 | 2 | 5 | 5 | 5 | 5 | 5 | 4 | 5 | 5 | 5 | 5 | 5 | 5 | 4 | 4 | 4 | Effects Velvetleaf [1]: 5; Effects Morning glory [22]: 4; Effects Barnyardgrass [23]: 3; Effects Livid amaranth [24]: 5; Effects Sugar beat [25]: 5; Effects Wheat [26]: 2; Effects Solgum [27]: 2; Effects Corn [28]: 2 |
| CCCC(=Cc1cccc(C(F)(F)F)c1)c1nc2cc(Cl)ccc2o1 [I-c-57] | 3 | 2 | 2 | 5 | 2 | 4 | 5 | 5 | 4 | 5 | 4 | 5 | 5 | 5 | 5 | 5 | 5 | 3 | 3 | 4 | Effects Velvetleaf [1]: 5; Effects Morning glory [22]: 3; Effects Barnyardgrass [23]: 3; Effects Livid amaranth [24]: 5; Effects Wheat [26]: 2; Effects Solgum [27]: 2; Effects Corn [28]: 2 |
| CC(=Cc1cccc(C(F)(F)F)c1)c1nc2cc(F)ccc2o1 [I-c-40] | 4 | 1 | 1 | 4 | 2 | 1 | 5 | 5 | 4 | 5 | 2 | 5 | 4 | 4 | 2 | 5 | 3 | 1 | 2 | 3 | Effects Morning glory [22]: 3; Effects Barnyardgrass [23]: 1; Effects Livid amaranth [24]: 5; Effects Sugar beat [25]: 1; Effects Wheat [26]: 0; Effects Solgum [27]: 2; Effects Corn [28]: 0 |

— US7402548B2, “Benzoxazole compounds, process for producing the same and herbicides” (Kyoyu Agri Co., Ltd., priority 2000, dated 2008)
